Values quoted from earlier work, collected in patent publication US12276869B1, “WS12-releasing contact lens” (CooperVision International Limited, priority 2022, dated 2025).

Conditions: incorporated into silicone hydrogel contact lenses

COc1ccc(NC(=O)C2CC(C)CCC2C(C)C)cc1 (stereo not shown) [WS12, N-(4-Methoxyphenyl)-5-methyl-2-(1-methylethyl)cyclohexanecarboxamide]
stability to autoclave sterilization in silicone hydrogel contact lenses: withstand autoclave sterilization without degradation or leaching into the packaging solution
